Measured values published in patent US9932637B2, “Genetic polymorphisms associated with cardiovascular disorders and drug response, methods of detection and uses thereof” (CELERA CORPORATION, priority 2003, dated 2018).
Values joined by “and” are separate entries in the source; they are usually repeats but may differ in a detail not shown here. Identical values can stand only once.

Test system: patients with prior myocardial infarction (CARE study)
Assay: CARE aligned analysis (prospective and case/control design, white males): association of genotypes with pravastatin efficacy (Tables 13, 15)
Format: in vivo, human
Conditions: for Pravastatin Patients (%) / Pravastatin Patients n/total / 2 Rare Alleles (%), Pravastatin Patients / 2 Rare Alleles n/total, Pravastatin Patients: F&NF MI; for Pravastatin Patients (%) / Pravastatin Patients n/total: WM; for 2 rare alleles n/total (%), pravastatin patients / Pravastatin vs placebo odds ratio, 0 rare alleles / Pravastatin vs placebo odds ratio, 1 rare allele / Pravastatin vs placebo odds ratio, 2 rare alleles: CARE, F MI/SD/NF MI
Experimental: The data presented in Table 8 based on an association of genotypes with pravastatin efficacy of the CARE samples were further analyzed and presented in Table 13. The further analysis was performed to align the data obtained from the analysis of the CARE samples, which was a prospective study, to the analysis of the WOSCOP samples, which was a case/control study. Table 13 also presents an analysis of the association of genotypes with pravastatin efficacy in the WOSCOPs samples. Relative to the analysis performed on the data presented in Table 8, there are two significant differences to determine if the SNP influenced pravastatin efficacy. Data obtained from the CARE samples were separated by study design into two groups, those in the prospective study design group and those in the case/control study design group. The original care study contained 16 protocol defined cardiovascular disease defined endpoints and 150 other phenotypes. […] The control groups used to compare the data were also divided into two groups, the “all possible” control group and the “cleaner” control group. […] Because the participants in the WOSCOPs trial were all white males, only data obtained from white males in the CARE study were analysed. Data from the “all possible” and “cleaner” controls were compared to data obtained from the cases in the prospective study design while only data from “cleaner” controls were compared to cases in the case/control study design. The data from the case/control cohorts were analysed using conditional logistic regression (as opposed to logistic regression used for the original anaylsis).
The anaylsis was refined as described for both Tables 13 and 14.

[1] = HLA-DPB1 hCV8851085, 0 Rare Alleles, CARE Prospective, Cleaner controls
[2] = HLA-DPB1 hCV8851085, 1 Rare Allele, CARE Case/Control, All Possible controls
[3] = HLA-DPB1 hCV8851085, 1 Rare Allele, CARE Case/Control, Cleaner controls
[4] = HLA-DPB1 hCV8851085, 1 Rare Allele, CARE Prospective, All Possible controls
[5] = HLA-DPB1 hCV8851085, 1 Rare Allele, CARE Prospective, Cleaner controls
[6] = HLA-DPB1 hCV8851085, Case/Control
[7] = HLA-DPB1 hCV8851085, Prospective
[8] = HLA-DPB1 hCV25651174, Case/Control
[9] = HLA-DPB1 hCV25651174, Prospective
[10] = HLA-DQB1 hCV9494470, 0 Rare Alleles, CARE Case/Control, All Possible controls
[11] = HLA-DQB1 hCV9494470, 0 Rare Alleles, CARE Case/Control, Cleaner controls
[12] = HLA-DQB1 hCV9494470, 0 Rare Alleles, CARE Prospective, All Possible controls
[13] = HLA-DQB1 hCV9494470, 0 Rare Alleles, CARE Prospective, Cleaner controls
[14] = HLA-DQB1 hCV9494470, 1 Rare Allele, CARE Case/Control, All Possible controls
[15] = HLA-DQB1 hCV9494470, 1 Rare Allele, CARE Case/Control, Cleaner controls
[16] = HLA-DQB1 hCV9494470, 1 Rare Allele, CARE Prospective, All Possible controls
[17] = HLA-DQB1 hCV9494470, 1 Rare Allele, CARE Prospective, Cleaner controls
[18] = HLA-DQB1 hCV9494470, Case/Control
[19] = HLA-DQB1 hCV9494470, Prospective
[20] = IL1RN hCV8737990, 0 Rare Alleles, CARE Case/Control, Cleaner controls
[21] = IL1RN hCV8737990, 0 Rare Alleles, CARE Prospective, All Possible controls
[22] = IL1RN hCV8737990, 0 Rare Alleles, CARE Prospective, Cleaner controls
[23] = IL1RN hCV8737990, 1 Rare Allele, CARE Case/Control, Cleaner controls
[24] = IL1RN hCV8737990, 1 Rare Allele, CARE Prospective, All Possible controls
[25] = IL1RN hCV8737990, 1 Rare Allele, CARE Prospective, Cleaner controls

## CC[C@H](C)C(=O)O[C@H]1C[C@H](O)C=C2C=C[C@H](C)[C@H](CC[C@@H](O)C[C@@H](O)CC(=O)O)[C@H]21 [pravastatin]
[1]
  Pravastatin Patients (%): (14.1%)
  Pravastatin Patients n/total: 74/523
[2]
  Pravastatin Patients (%): (10.3%)
  Pravastatin Patients n/total: 44/426
[3]
  Pravastatin Patients (%): (15.1%)
  Pravastatin Patients n/total: 44/292
[4]
  Pravastatin Patients (%): (10.2%)
  Pravastatin Patients n/total: 44/433
[5]
  Pravastatin Patients (%): (14.9%)
  Pravastatin Patients n/total: 44/295
HLA-DPB1 hCV8851085, CARE Case/Control
  2 Rare Alleles (%), Pravastatin Patients: (25.7%)
[6]
  2 rare alleles n/total (%), pravastatin patients: (22.9%)
  Pravastatin vs placebo odds ratio, 0 rare alleles: 0.57
  Pravastatin vs placebo odds ratio, 1 rare allele: 0.87
  Pravastatin vs placebo odds ratio, 2 rare alleles: 4.69
[7]
  2 rare alleles n/total (%), pravastatin patients: (22.9%)
  Pravastatin vs placebo odds ratio, 0 rare alleles: 0.58
  Pravastatin vs placebo odds ratio, 1 rare allele: 0.85
  Pravastatin vs placebo odds ratio, 2 rare alleles: 4.15
HLA-DPB1 hCV25651174, CARE Case/Control
  2 Rare Alleles n/total, Pravastatin Patients: 17/109
HLA-DPB1 hCV25651174, CARE Prospective
  2 Rare Alleles n/total, Pravastatin Patients: 17/110 and 17/77
[8]
  Pravastatin vs placebo odds ratio, 0 rare alleles: 0.59 and 0.51
  Pravastatin vs placebo odds ratio, 1 rare allele: 0.84 and 0.75
  Pravastatin vs placebo odds ratio, 2 rare alleles: 4.39 and 4.91
[9]
  Pravastatin vs placebo odds ratio, 0 rare alleles: 0.59 and 0.52
  Pravastatin vs placebo odds ratio, 1 rare allele: 0.84 and 0.72
  Pravastatin vs placebo odds ratio, 2 rare alleles: 4.29 and 4.60
[10]
  Pravastatin Patients (%): (11.1%)
  Pravastatin Patients n/total: 92/826
[11]
  Pravastatin Patients (%): (16.1%)
  Pravastatin Patients n/total: 92/572
[12]
  Pravastatin Patients (%): (11.0%)
  Pravastatin Patients n/total: 92/840
[13]
  Pravastatin Patients (%): (15.8%)
  Pravastatin Patients n/total: 92/583
[14]
  Pravastatin Patients (%): (7.9%)
  Pravastatin Patients n/total: 28/353
[15]
  Pravastatin Patients (%): (11.5%)
  Pravastatin Patients n/total: 28/244
[16]
  Pravastatin Patients (%): (7.8%)
  Pravastatin Patients n/total: 28/361
[17]
  Pravastatin Patients (%): (11.3%)
  Pravastatin Patients n/total: 28/247
[18]
  Pravastatin vs placebo odds ratio, 0 rare alleles: 0.99 and 0.90
  Pravastatin vs placebo odds ratio, 1 rare allele: 0.40 and 0.36
  Pravastatin vs placebo odds ratio, 2 rare alleles: 2.00 and 2.22
[19]
  Pravastatin vs placebo odds ratio, 0 rare alleles: 0.99 and 0.87
  Pravastatin vs placebo odds ratio, 1 rare allele: 0.42 and 0.38
  Pravastatin vs placebo odds ratio, 2 rare alleles: 2.06 and 2.16
[20]
  Pravastatin Patients (%): (14.9%)
  Pravastatin Patients n/total: 66/444
[21]
  Pravastatin Patients (%): (10.3%)
  Pravastatin Patients n/total: 66/642
[22]
  Pravastatin Patients (%): (14.6%)
  Pravastatin Patients n/total: 66/453
[23]
  Pravastatin Patients (%): (13.0%)
  Pravastatin Patients n/total: 43/332
[24]
  Pravastatin Patients (%): (8.7%)
  Pravastatin Patients n/total: 43/496
[25]
  Pravastatin Patients (%): (12.8%)
  Pravastatin Patients n/total: 43/336
IL1RN hCV8737990, CARE Case/Control
  2 Rare Alleles (%), Pravastatin Patients: (27.4%)
IL1RN hCV8737990, Case/Control
  2 rare alleles n/total (%), pravastatin patients: (21.1%)
  Pravastatin vs placebo odds ratio, 0 rare alleles: 0.77
  Pravastatin vs placebo odds ratio, 1 rare allele: 0.50
  Pravastatin vs placebo odds ratio, 2 rare alleles: 1.97
IL1RN hCV8737990, Prospective
  2 rare alleles n/total (%), pravastatin patients: (20.7%)
  Pravastatin vs placebo odds ratio, 0 rare alleles: 0.80
  Pravastatin vs placebo odds ratio, 1 rare allele: 0.46
  Pravastatin vs placebo odds ratio, 2 rare alleles: 1.92
IL4R hCV2769554, Case/Control
  Pravastatin vs placebo odds ratio, 0 rare alleles: 0.58 and 0.57
